Data: patent US8415106B2, “Cell-based screen for agents useful for reducing neuronal demyelination or promoting neuronal remyelination” (Myelin Repair Foundation, Inc., priority 2005, dated 2013)

How the values were obtained:
[1] = tested on: myelin basic protein (MBP); experiment: Hippocampal organotypic cultures (HOC), in vitro model of myelination, MBP Western blot; type: cell-based; details: 7 days
Protocol: HOCs, were prepared and maintained as described previously (Kunkler and Kraig (1997) J Cereb Blood Flow Metab. 17:26-43), and were maintained in vitro for 7 days before use. SAL at various concentrations was combined with 100 U/ml IFN-γ and added to the HOC cultures for 7 days. […] After 7 days of 100 U/ml IFN-γ exposure, the levels of MBP decreased approximately 80% in the HOCs (FIG. 29).

[2] = tested on: PP1-GADD34 phosphatase; details: Boyce, et al. (2005) Science 307:935-939; cited from earlier work

Question: For `O=C(/C=C/c1ccccc1)NC(NC(=S)Nc1cccc2cccnc12)C(Cl)(Cl)Cl` (stereo not drawn) [SAL, salubrinal], which “reduction of MBP expression elicited by IFN-γ exposure” value ([1]; SAL at various concentrations combined with 100 U/ml IFN-γ) is on record?
Answer: The value was “markedly attenuated”.

Question: What about the MBP expression ([1]; SAL treatment alone) of the same molecule?
Answer: The MBP expression was “did not affect MBP expression”.

Question: And the PP1-GADD34 phosphatase activity [2]?
Answer: Its PP1-GADD34 phosphatase activity is “specifically inhibits the PP1-GADD34 phosphatase activity”.
